In US9586961B2, “Homopiperazine derivatives as protein tyrosine kinase inhibitors and pharmaceutical use thereof” (LEO PHARMA A/S, priority 2010, dated 2017):

Key:
Type in all cases: biochemical
[1] = molecular target: T1, JAK1 (Homo sapiens, UniProt P23458); assay: JAK1 kinase assay (HTRF, inhibition of phosphorylation of a synthetic peptide); conditions: catalytic domain aa 850-1154, GST-tag; 7 μM ATP (Km); read-out: JAK1 kinase inhibitory activity (EC50)
T1 construct: JAK1 (aa 850-1154) and TYK2 (aa 871-1187) are expressed with an N-terminally fused GST-tag; GST (N); purchased Carna Biosciences, Inc; host or cells: baculovirus expression system
T1 sequence (P23458 850-1154): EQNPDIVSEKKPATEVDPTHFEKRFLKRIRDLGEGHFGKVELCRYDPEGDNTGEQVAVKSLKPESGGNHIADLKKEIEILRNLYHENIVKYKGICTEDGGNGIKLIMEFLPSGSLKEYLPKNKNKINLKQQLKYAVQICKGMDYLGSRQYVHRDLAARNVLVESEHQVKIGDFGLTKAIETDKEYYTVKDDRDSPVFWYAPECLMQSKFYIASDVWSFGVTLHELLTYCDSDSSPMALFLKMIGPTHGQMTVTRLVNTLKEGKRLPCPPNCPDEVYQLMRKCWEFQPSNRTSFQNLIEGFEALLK
Outline: (§1)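 Baculovirus-expressed human catalytic domains (GST-JAK1, GST-TYK2, His-JAK2, His-JAK3) phosphorylated 1 μM TK substrate-biotin at ATP Km (JAK1 7 μM, JAK2 4 μM, JAK3 2 μM, TYK2 13 μM) in pH 7.0 Hepes for 20-30 min at RT, 0.75% DMSO. EDTA stop, then overnight streptavidin-XL665/cryptate-antibody detection and HTRF read.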

[2] = molecular target: T2, JAK2 (Homo sapiens, UniProt O60674); assay: JAK2 kinase assay (HTRF, inhibition of phosphorylation of a synthetic peptide); conditions: catalytic domain, His-tag; 4 μM ATP (Km); read-out: JAK2 kinase inhibitory activity (EC50)
T2 construct: All four purified enzymes contain only the catalytic domain; His (N); purchased Carna Biosciences, Inc; host or cells: baculovirus expression system
T2 sequence (O60674 849-1124 limits assumed): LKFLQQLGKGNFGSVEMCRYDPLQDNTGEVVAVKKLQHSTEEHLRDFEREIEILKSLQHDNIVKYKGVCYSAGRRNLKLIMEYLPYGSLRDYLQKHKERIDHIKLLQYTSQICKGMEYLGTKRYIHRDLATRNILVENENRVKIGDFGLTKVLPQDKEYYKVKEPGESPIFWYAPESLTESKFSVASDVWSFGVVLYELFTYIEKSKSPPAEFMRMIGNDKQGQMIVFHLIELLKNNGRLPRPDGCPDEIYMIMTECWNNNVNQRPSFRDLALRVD
Outline: as §1

[3] = molecular target: T3, JAK3 (Homo sapiens, UniProt P52333); assay: JAK3 kinase assay (HTRF, inhibition of phosphorylation of a synthetic peptide); conditions: catalytic domain, His-tag; 2 μM ATP (Km); read-out: JAK3 kinase inhibitory activity (EC50)
T3 construct: All four purified enzymes contain only the catalytic domain; His (N); purchased Carna Biosciences, Inc; host or cells: baculovirus expression system
T3 sequence (P52333 822-1111 limits assumed): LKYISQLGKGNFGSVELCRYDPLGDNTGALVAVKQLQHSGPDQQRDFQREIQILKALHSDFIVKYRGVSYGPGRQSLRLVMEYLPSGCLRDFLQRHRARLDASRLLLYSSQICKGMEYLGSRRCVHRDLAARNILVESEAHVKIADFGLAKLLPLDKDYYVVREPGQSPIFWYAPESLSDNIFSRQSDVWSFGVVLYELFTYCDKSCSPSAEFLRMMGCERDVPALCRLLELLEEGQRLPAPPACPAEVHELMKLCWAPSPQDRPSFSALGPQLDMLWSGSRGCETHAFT
Outline: as §1

[4] = molecular target: T4, TYK2 (Homo sapiens, UniProt P29597); assay: TYK2 kinase assay (HTRF, inhibition of phosphorylation of a synthetic peptide); conditions: catalytic domain aa 871-1187, GST-tag; 13 μM ATP (Km); read-out: TYK2 kinase inhibitory activity (EC50)
T4 construct: JAK1 (aa 850-1154) and TYK2 (aa 871-1187) are expressed with an N-terminally fused GST-tag; GST (N); purchased Carna Biosciences, Inc; host or cells: baculovirus expression system
T4 sequence (P29597 871-1187): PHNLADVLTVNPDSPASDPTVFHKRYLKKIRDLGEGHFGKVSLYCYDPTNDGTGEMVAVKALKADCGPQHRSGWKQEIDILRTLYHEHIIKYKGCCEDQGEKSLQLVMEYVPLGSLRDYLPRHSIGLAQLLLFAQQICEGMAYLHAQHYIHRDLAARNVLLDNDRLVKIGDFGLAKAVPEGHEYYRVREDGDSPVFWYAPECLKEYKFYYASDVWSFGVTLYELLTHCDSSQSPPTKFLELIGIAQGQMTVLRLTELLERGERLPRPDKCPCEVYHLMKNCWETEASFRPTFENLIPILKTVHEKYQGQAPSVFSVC
Outline: as §1

SMILES | EC50 [1] [nM] | EC50 [2] [nM] | EC50 [3] [nM] | EC50 [4] [nM]
N#CC1(C(=O)N2CCN(c3ncnc4[nH]ccc34)CC3(CC3)C2)CCOCC1 [Example 41, 4-[5-(7H-pyrrolo[2,3-d]pyrimidin-4-yl)-5,8-diazaspiro[2.6]nonane-8-carbonyl]tetrahydropyran-4-carbonitrile] | > 1000 | 100 to 1000 | 100 to 1000 | > 1000
CN(C1CCCCC1)S(=O)(=O)N1CCN(c2ncnc3[nH]ccc23)CC2(CC2)C1 [Example 105, N-cyclohexyl-N-methyl-5-(7H-pyrrolo[2,3-d]pyrimidin-4-yl)-5,8-diazaspiro[2.6]nonane-8-sulfonamide] | 100 to 1000 | 100 to 1000 | > 1000 | > 1000
Cc1cc(C(=O)N2CCCN(c3ncnc4[nH]ccc34)CC23CC3)no1 [Example 141] | < 100 | < 100 | 100 to 1000 | 100 to 1000
O=C(c1ccsn1)N1CCCN(c2ncnc3[nH]ccc23)CC12CC2 [Example 201, isothiazol-3-yl-[5-(7H-pyrrolo[2,3-d]pyrimidin-4-yl)-5,9-diazaspiro[2.6]nonan-9-yl]methanone] | < 100 | < 100 | 100 to 1000 | 100 to 1000
N#CC1(C(=O)N2CCN(c3ncnc4[nH]ccc34)CCC23CC3)CC1 [Example 44, 1-[6-(7H-pyrrolo[2,3-d]pyrimidin-4-yl)-6,9-diazaspiro[2.6]nonane-9-carbonyl]cyclopropanecarbonitrile] | 100 to 1000 | 100 to 1000 | > 1000 | > 1000
Cc1cc(CC(=O)N2CCN(c3ncnc4[nH]ccc34)CC3(CC3)C2)no1 [Example 87, 2-(5-methylisoxazol-3-yl)-1-[5-(7H-pyrrolo[2,3-d]pyrimidin-4-yl)-5,8-diazaspiro[2.6]nonan-8-yl]ethanone] | < 100 | < 100 | 100 to 1000 | 100 to 1000
N#CCCC(=O)N1CCN(c2ncnc3[nH]ccc23)CC2(CC2)C1 [Example 1, 4-Oxo-4-[8-(7H-pyrrolo[2,3-d]pyrimidin-4-yl)-5,8-diazaspiro[2.6]non-5-yl]butyronitrile] | < 100 | < 100 | 100 to 1000 | 100 to 1000
O=C(c1ccc[nH]1)N1CCCN(c2ncnc3[nH]ccc23)CC12CC2 [Example 255, [5-(7H-pyrrolo[2,3-d]pyrimidin-4-yl)-5,9-diazaspiro[2.6]nonan-9-yl]-(1H-pyrrol-2-yl)methanone] | < 100 | < 100 | 100 to 1000 | 100 to 1000
N#CCC(=O)N1CCN(c2ncnc3[nH]ccc23)CC2(CC2)C1 [Example 5, 3-oxo-3-[8-(7H-pyrrolo[2,3-d]pyrimidin-4-yl)-5,8-diazaspiro[2.6]non-5-yl]propionitrile] | < 100 | < 100 | < 100 | 100 to 1000
